Assay results from patent US4656184A, “2-(N-substituted hydrazone), thiazoles useful as anti-inflammatories” (priority 1982, dated 1987).
Read-outs that look alike come from different tables or passages of the source.

Experiments:
[1] = test system: prostanoids; assay: Inhibition of the metabolism of 14C-arachidonate in the blood platelets of rabbits: prostanoids route (TxB2, HHT); format: cell-based; details: rabbit blood platelets
Protocol: (§1) 1.2. Inhibition of the metabolism of
(§2) ^14 C-Arachidonate in the blood platelets of rabbits
(§3) Preparation of a platelet-rich plasma (PRP)
(§4) A 12 ml blood sample is taken, by the intracardiac route, on ACD (anticoagulant consisting of an aqueous solution containing 0.27 g citric acid, 0.5 g disodium citrate and 0.02 g glucose per 20 ml water), at a rate of 1 volume ACD per 6 volumes blood. The blood is centrifuged at 200 g for 10 minutes and the supernatant (PRP) is collected. It is again centrifuged at 1500 g for 15 minutes. The blood-platelet sediment is washed with Buffer I (NaCl: 8 g/l, Tris: 1.21 g/l, KCl: 0.2 g/l, Gelatin: 2.5 g/l; the material is heated at 90° C. to dissolve the gelatin, after which are added glucose: 1 g/l, and N,N'-ethyleneglycol bis(β-aminoethyl ether,)tetraacetic acid or EGTA: 0.075 g/l). The suspension is centrifuged at 1500 g for 10 minutes, and the sediment is taken up into Buffer II (NaCl: 8 g/l, Tris: 1.21 g/l, KCl: 0.2 g/l, CaCl2 : 0.145 g/l, MgCl2 0.2 g/l, gelatin: 2.5 g/l; this material is heated to 90° C., after which glucose (1 g/l) is added, and the pH is adjusted to a value of 7.4 with 0.1 N HCl),
(§5) Metabolism of ^14 C-Arachidonate
(§6) The blood-platelet suspension (0.4 ml/tube) is pre-incubated at 37° C. for 15 minutes, either with 10 μl DMSO (reference), or with varying concentrations of products to be treated dissolved in 10 μl DMSO.
(§7) The incubation is effected in the presence of ^14 C-Arachidonate (1 μg, 0.2 μCi) distributed within 0.1 ml Buffer II. It is blocked after 15 minutes by means of 50 μl citric acid and 250 μl saturated NaCl.

[2] = molecular target: T1, 12-lipoxygenase (Oryctolagus cuniculus, UniProt G1U492); assay: Inhibition of the metabolism of 14C-arachidonate in the blood platelets of rabbits: 12-lipoxygenase route (12-HETE); format: cell-based; details: rabbit blood platelets; 12 HETE; n.i. = no inhibition
T1 construct: metabolism of ^14 C-Arachidonate in the blood platelets of rabbits; endogenous in cells; host or cells: washed rabbit blood platelets (from platelet-rich plasma)
T1 sequence (G1U492 1-663): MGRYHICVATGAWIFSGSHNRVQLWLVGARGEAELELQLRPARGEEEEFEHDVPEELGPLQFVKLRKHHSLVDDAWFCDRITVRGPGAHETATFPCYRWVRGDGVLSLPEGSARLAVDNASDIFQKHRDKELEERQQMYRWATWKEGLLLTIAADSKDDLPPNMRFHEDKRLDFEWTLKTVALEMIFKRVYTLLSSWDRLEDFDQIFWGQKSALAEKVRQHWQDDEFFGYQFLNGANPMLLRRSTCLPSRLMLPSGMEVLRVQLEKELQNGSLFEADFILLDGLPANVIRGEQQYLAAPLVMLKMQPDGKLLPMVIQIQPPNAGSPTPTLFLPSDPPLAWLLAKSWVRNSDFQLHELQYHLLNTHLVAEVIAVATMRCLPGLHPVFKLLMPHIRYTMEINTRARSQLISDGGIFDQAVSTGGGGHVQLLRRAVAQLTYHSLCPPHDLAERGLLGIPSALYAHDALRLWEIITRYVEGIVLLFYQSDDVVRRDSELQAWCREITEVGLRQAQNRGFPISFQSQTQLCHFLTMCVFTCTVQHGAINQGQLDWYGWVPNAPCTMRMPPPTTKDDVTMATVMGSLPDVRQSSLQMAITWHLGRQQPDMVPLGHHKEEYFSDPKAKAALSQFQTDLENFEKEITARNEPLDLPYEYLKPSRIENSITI
Protocol: as §1, §2, §3, §4, §5, §6, §7

[3] = molecular target: T2, 5-lipoxygenase of the peritoneal leukocytes of rabbits (PMNs) (Oryctolagus cuniculus, UniProt G1SNX0); assay: Inhibition of the 5-lipoxygenase of the peritoneal leukocytes of rabbits (PMNs), metabolism of 14C-arachidonate; format: cell-based; details: rabbit peritoneal PMNs; for IC50 / IC50 in the PMNs, 5 HETE / IC50 in the PMNs, LTB4: n.i. = no inhibition
T2 construct: metabolism of ^14 C-AA in the peritoneal PMNs of rabbits; endogenous in cells; host or cells: rabbit peritoneal polymorphonuclear leukocytes (suspension)
T2 sequence (G1SNX0 1-674): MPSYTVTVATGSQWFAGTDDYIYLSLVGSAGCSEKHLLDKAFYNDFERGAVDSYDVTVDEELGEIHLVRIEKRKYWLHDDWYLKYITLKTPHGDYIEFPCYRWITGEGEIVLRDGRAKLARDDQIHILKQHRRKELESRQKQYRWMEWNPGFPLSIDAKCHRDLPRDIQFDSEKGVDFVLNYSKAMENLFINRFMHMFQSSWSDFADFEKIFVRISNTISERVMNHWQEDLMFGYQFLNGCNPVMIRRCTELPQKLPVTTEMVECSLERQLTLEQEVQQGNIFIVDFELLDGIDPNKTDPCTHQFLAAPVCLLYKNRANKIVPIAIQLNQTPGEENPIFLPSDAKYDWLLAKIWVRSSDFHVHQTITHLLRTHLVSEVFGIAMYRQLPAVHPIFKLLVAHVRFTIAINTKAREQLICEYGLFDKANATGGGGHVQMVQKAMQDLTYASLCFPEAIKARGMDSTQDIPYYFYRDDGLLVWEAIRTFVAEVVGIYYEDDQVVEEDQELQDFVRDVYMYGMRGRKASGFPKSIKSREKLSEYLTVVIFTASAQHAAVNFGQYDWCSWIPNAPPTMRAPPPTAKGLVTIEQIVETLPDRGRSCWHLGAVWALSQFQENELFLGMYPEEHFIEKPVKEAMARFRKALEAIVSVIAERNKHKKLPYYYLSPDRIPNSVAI
Protocol: 1.1. Inhibition of the 5-lipoxygenase of the peritoneal leukocytes of rabbits (PMNs)
(§8) Preparation of a suspension of rabbit PMNs
(§9) The peritoneal leukocytes of rabbits are obtained and prepared according to the technique described by P. Borgeat and B. Samuelson (J. Biol. Chem. 254, n° 8, p. 2643, 1979).
as §5
(§10) The incubation and extraction methods are those described by J. Y. Vanderhoek & co-workers (J. Biol. Chem. […], 21, 10064, 1980).
(§11) The percent inhibition of the 5-lipoxygenase is determined as a function of the concentration of each compound. The concentration of product that inhibits the metabolism by a factor of 50% (IC50) is inferred from those curves.

[4] = test system: 15 HETE; assay: Metabolism of 14C-arachidonate in rabbit peritoneal PMNs: 15 HETE; format: cell-based; details: 15 HETE formation, n.i. = no inhibition
Protocol: as §8, §9, §5, §10, §11

[5] = test system: edema of the ear in rats; assay: Cutaneous anti-inflammatory activity: inhibition of the edema of the ear in rats following topic administration; format: in vivo; details: rat ear edema, topical
Protocol: Cutaneous anti-inflammatory activity determined by the inhibition of the edema of the ear in rats following topic administration. This activity is determined by means of the method according to G. Tonelli and co-workers (Endocrinology, 1965, 77, 625-634). The effect of various concentrations of each compound is determined in at least seven rats. Inflammation is inhibited by a factor of 50% at the following concentrations: […]

[6] = Acute toxicity, intraperitoneal route; details: mouse, in vivo, ip, in DMSO, 14 days observation, with confidence interval
Protocol: The test animals used are Swiss mice (NMRI-Han). The average weight of the male animals is 30 g, that of the females is 25 g.
The acute toxicity investigation was conducted by the intraperitoneal route.
The compounds, dissolved in DMSO, are injected under the ventral side of the peritoneum, at increasing dosages.
The reference group is administered DMSO under the same conditions (2.5 ml.kg^-1).
Following Table III gives the values of the 50% lethal dosages together with the […].

[7] = test system: leukocytic infiltration in the aqueous humor; details: in vivo; cited from earlier work
[8] = HHT, read-out: IC50 in the blood platelets, HHT
[9] = thromboxane B2, read-out: IC50 in the blood platelets, T × B2
[10] = LTB4 formation, read-out: IC50 in the PMNs, LTB4
[11] = Oryctolagus cuniculus, Platelet, HHT, read-out: IC50 in the blood platelets, HHT
[12] = Oryctolagus cuniculus, Platelet, thromboxane B2, read-out: IC50 in the blood platelets, T × B2
[13] = 5 HETE formation, read-out: IC50 in the PMNs, 5 HETE

CCOC(=O)CCCC(C)=NNc1nccs1 [Example 1a]
IC50 [1, 8]: 50 µM | IC50 [1, 9]: 12 µM | IC50 in the blood platelets, 12 HETE [2]: n.i. | IC50 [3, 10]: 13 µM

c1ccc2c(c1)CCCC2=NNc1nccs1 [Example 7]
IC50 [1, 11]: 16 µM | IC50 [1, 12]: 10 µM | IC50 ([4]; Oryctolagus cuniculus): 2 µM | IC50 [2]: 40 µM | IC50 [3, 13]: 6 µM | IC50 [3, 10]: 8 µM

NC(=NNc1ccccc1)c1ccccc1 [Example 21]
IC50 [1, 11]: 10 µM | IC50 [1, 12]: 10 µM | IC50 in the blood platelets, 12 HETE [2]: n.i. | IC50 [3, 13]: 20 µM | IC50 [3, 10]: 10 µM

C[C@H](Cc1ccc(O)c(O)c1)[C@@H](C)Cc1ccc(O)c(O)c1 [NDGA, Nordihydroguaiaretic acid]
concentration at which inflammation is inhibited by a factor of 50% ([5]; at least seven rats): 12.5 mg/mL | concentration at which inflammation is inhibited by a factor of 50% ([5]; molar value in parentheses): 41 µmol/mL

CC(=NNc1nccs1)c1cccs1 [Example 3b]
IC50 [1, 8]: > 50 µM | IC50 [1, 9]: 10 µM | LD50 at 336 h ([6]; female Swiss mice, read-out: Parenteral LD50, female mice): 155 ± 32 mg/kg | LD50 at 336 h ([6]; male Swiss mice, read-out: Parenteral LD50, male mice): 105 ± 24 mg/kg | IC50 [4]: 40 µM | IC50 [2]: 10 µM | concentration at which inflammation is inhibited by a factor of 50% ([5]; at least seven rats): 16 mg/mL | concentration at which inflammation is inhibited by a factor of 50% ([5]; molar value in parentheses): 57 µmol/mL | inhibition of the metabolism of the 5-lipoxygenase route (chromatographic profile, FIG. 2b) ([3]; 50 μM): inhibition of the metabolism of the 5-lipoxygenase route | IC50 [3, 13]: 10 µM | IC50 [3, 10]: 13 µM

O=C(O)c1cc(=NNc2nccs2)c2ccccc2o1 [Example 20]
IC50 [1, 11]: 20 µM | IC50 [1, 12]: 15 µM | IC50 in the blood platelets, 12 HETE [2]: n.i. | IC50 in the PMNs, 5 HETE ([3]; 5 HETE formation): n.i. | IC50 in the PMNs, LTB4 ([3]; LTB4 formation): n.i.

CC(Cn1ccnc1)=NNc1nccs1 [Example 4]
IC50 [1, 11]: > 50 µM | IC50 [1, 12]: > 50 µM | IC50 ([4]; Oryctolagus cuniculus): 2 µM | IC50 [2]: > 50 µM | IC50 in the PMNs, 5 HETE ([3]; 5 HETE formation): n.i. | IC50 in the PMNs, LTB4 ([3]; LTB4 formation): n.i.

CC(=NNc1nccs1)c1ccco1 [Example 3c]
IC50 [1, 11]: > 50 µM | IC50 [1, 12]: 10 µM | IC50 ([4]; Oryctolagus cuniculus): > 50 µM | IC50 [2]: 14 µM | IC50 [3, 13]: 10 µM | IC50 [3, 10]: 2 µM

COc1ccc2c(c1)c(CC(=O)O)c(C)n2C(=O)c1ccc(Cl)cc1 [Indomethacin]
leukocytic infiltration in the aqueous humor [7]: increases leukocytic infiltration in the aqueous humor | concentration at which inflammation is inhibited by a factor of 50% ([5]; at least seven rats): no inhibition
